Data taken from US20050054625A1, “Method for treating diseases using HSP90-inhibiting agents in combination with nuclear export inhibitors” (Kosan Biosciences, Inc., priority 2003, published 2005).

Test system: DLD-1 cells (human colorectal cancer cells)
Experiment: Cell viability (MTS) drug combination assay, combination index
Format: cell-based
Conditions: combination with 17-AAG, CI<1 synergism
Procedure: Human colon adenocarcinoma cell line, DLD-1, and human breast adenocarcinoma cell line, SKBr-3, were obtained from American Type Culture Collection (manassas, VA). DLD-1 cells were maintained in RPMI 1640 medium supplemented with 10% fetal bovine serum, and SKBr-3 cells were cultured in McCoy's 5a medium supplemented with 10% fetal bovine serum. 17-DMAG and 17-AAG were obtained using published procedures. Other cytotoxic agents were purchased commercially from suppliers such as Sigrna Chemical Co. (St. Louis, Mo.) and Sequoia Research Products (Oxford, UK).
Cells were seeded in duplicate in 96-well microtiter plates at a density of 5,000 cells per well and allowed to attach overnight. […] Cell viability was determined using the MTS assay (Promega). […] Cell viability was determined by the MTS assay.
Synergism, additivity or antagonism was determined by median effect analysis using the combination index (CI) calculated using Calcusyn (Biosoft, Cambridge, UK). The combination index is defined as follows: CI=[D]1/[Dx]1+[D]2/[Dx]2 The quantities [D]1 and [D]2 represent the concentrations of the first and second drug, respectively, that in combination provide a response of x % in the assay. The quantities [Dx]1 and [Dx]2 represent the concentrations of the first and second drug, respectively, that when used alone provide a response of x % in the assay. […]

callystatin
CI value, 17-AAG Pre-Administration (17-AAG given 24 hours before the nuclear export inhibitor (48 hours)): 0.95 ± 0.04
CI value, 17-AAG Post-Administration (nuclear export inhibitor alone 24 hours, then 17-AAG for 48 hours): 0.81 ± 0.06
